Literature values in patent US11053524B2, “Microorganisms having putrescine productivity and process for producing putrescine using the same” (CJ CHEILJEDANG CORPORATION, priority 2013, dated 2021).

How the values were obtained:
potE = potE (Escherichia coli, UniProt P0AAF1); conditions: read-out: Km of putrescine uptake
PotFGHI = PotFGHI (Escherichia coli, UniProt P31133); conditions: read-out: Km of putrescine uptake
puuP = puuP (Escherichia coli, UniProt P76037); conditions: read-out: Km of putrescine uptake
potABCD = potABCD (Escherichia coli, UniProt P0AFK9); conditions: read-out: Km of putrescine uptake
Sequence of potABCD (P0AFK9 24-348): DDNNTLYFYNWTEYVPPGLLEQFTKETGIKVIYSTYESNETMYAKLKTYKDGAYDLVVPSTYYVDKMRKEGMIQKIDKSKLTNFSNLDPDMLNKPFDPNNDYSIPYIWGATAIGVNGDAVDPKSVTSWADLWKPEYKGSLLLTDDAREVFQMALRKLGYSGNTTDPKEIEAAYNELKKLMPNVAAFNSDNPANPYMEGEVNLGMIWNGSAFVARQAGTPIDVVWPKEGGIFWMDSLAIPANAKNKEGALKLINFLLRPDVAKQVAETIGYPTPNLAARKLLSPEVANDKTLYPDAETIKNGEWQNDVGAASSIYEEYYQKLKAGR

Sequence of potE (P0AAF1 whole entry): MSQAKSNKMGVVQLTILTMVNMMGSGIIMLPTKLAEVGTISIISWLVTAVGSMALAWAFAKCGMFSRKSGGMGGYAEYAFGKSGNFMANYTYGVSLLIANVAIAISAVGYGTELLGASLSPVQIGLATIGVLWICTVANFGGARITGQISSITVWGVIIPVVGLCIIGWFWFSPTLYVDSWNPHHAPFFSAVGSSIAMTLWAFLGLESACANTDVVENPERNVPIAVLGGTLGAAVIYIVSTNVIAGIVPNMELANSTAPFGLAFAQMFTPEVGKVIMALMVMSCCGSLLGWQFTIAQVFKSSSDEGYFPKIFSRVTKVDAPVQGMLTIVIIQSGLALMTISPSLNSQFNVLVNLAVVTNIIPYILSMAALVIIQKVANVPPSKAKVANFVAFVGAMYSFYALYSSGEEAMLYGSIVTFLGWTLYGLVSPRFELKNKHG
Sequence of puuP (P76037 whole entry): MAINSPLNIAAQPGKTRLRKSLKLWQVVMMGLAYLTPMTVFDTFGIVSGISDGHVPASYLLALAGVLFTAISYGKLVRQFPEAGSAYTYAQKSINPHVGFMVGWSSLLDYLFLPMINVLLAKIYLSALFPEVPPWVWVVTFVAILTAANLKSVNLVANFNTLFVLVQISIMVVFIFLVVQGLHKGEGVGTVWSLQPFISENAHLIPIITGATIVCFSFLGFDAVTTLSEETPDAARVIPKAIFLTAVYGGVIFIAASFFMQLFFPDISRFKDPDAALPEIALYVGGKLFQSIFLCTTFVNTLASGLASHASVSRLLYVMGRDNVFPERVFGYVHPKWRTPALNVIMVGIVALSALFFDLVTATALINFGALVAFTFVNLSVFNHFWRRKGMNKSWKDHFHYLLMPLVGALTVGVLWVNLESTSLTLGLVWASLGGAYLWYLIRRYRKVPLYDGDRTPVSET
Sequence of PotFGHI (P31133 27-370): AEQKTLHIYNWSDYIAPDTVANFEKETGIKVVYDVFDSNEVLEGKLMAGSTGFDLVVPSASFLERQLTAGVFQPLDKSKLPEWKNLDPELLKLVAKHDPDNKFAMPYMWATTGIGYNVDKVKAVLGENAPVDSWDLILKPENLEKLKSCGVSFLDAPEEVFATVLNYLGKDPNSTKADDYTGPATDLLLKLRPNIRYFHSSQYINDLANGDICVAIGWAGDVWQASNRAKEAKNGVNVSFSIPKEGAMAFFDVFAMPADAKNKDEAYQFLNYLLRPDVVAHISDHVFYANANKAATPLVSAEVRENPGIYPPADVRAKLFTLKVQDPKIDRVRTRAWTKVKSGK

## NCCCCN [putrescine, 1,4-butanediamine]
potE
  Km: 1800 µM
PotFGHI
  Km: 500 µM
puuP
  Km: 3700 µM
Yeast cell
  putrescine concentration to which the cell is sensitive: 90 mM
Yeast cell; yeast cell over-expressing TPO5 gene
  putrescine concentration to which the cell is resistant: 120 mM
potABCD
  Km: 1500 µM
